Assay results reported in patent publication US20260234107A1, “TRYPTAMINES AND METHODS OF TREATING MOOD DISORDERS” (priority 2022, published 2026).
Where two headings read alike, the source gives them in different places.

Legend:
[1] = molecular target: T1, 5-HT2B (Homo sapiens, UniProt P41595); experiment: FLIPR Ca2+ flux agonist assay at 5-HT2B; type: cell-based; conditions: for 5-HT2B % Act @ Max Dose: HEK293, max dose
T1 construct: host or cells: HEK293

[2] = molecular target: T2, 5-HT2A (Homo sapiens, UniProt P28223); experiment: FLIPR Ca2+ flux agonist assay at 5-HT2A; type: cell-based; parameters: host or cells: HEK293; conditions: for 5-HT2A % Act @ Max Dose: HEK293, max dose
[3] = Stability in mouse brain homogenate; type: in vitro ADME, male CD-1 mice; conditions: for half-life at 1 µM: male, CD-1
[4] = Plasma pharmacokinetics in mice after subcutaneous administration; type: in vivo, male C57BL/6 mice; conditions: SC 10 mg/kg
Source text: Animals. […] Four mice were housed in each cage. […] All animals were provided laboratory rodent diet. […] Animals were randomly assigned to treatment groups.

[5] = molecular target: T2, 5-HT2A; experiment: 5-HT2A receptor radioligand binding ([3H]ketanserin)
Method: The binding affinities of disclosed compounds at the ketanserin binding site of the 5-HT2A receptor were determined in radioligand binding experiments.
Method. Affinity of the test compounds for the 5-HT2A receptor was determined in radioligand binding experiments with [^3H]ketanserin by WuXi AppTec (Hong Kong) Limited, using methods adapted from the literature and under conditions described in Table 4.

[6] = molecular target: T3, 5-HT1A (Homo sapiens, UniProt P08908); experiment: FLIPR Ca2+ flux agonist assay at 5-HT1A; type: cell-based; conditions: for 5-HT1A % Act @ Max Dose: Ca2+ flux, CHO cells
T3 construct: host or cells: CHO cells
T3 sequence (P08908 1-422): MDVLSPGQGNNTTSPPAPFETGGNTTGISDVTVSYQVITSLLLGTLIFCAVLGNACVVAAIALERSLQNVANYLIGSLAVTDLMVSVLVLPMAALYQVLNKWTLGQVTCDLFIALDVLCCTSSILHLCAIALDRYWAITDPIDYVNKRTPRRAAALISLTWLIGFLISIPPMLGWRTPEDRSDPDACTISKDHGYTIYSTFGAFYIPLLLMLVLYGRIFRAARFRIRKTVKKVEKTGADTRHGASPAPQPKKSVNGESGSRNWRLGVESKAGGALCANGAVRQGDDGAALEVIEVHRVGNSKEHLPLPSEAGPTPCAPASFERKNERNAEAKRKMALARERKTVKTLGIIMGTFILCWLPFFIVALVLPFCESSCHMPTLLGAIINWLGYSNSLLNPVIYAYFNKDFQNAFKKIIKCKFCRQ

[7] = Stability in rat brain homogenate; type: in vitro ADME, male Sprague Dawley rats; conditions: for half-life at 1 µM: male, Sprague Dawley
[8] = test system: monoamine oxidase A and B (MAO-A and MAO-B); experiment: Stability in the presence of monoamine oxidases (human liver mitochondria preparation); parameters: half-life / microsomal CLint: dose or concentration left out as unconfirmed; conditions: for stability in the presence of MAO (in words): human liver mitochondria preparation; for Remaining (t = 60 min) / half-life / microsomal CLint: human liver mitochondria; for half-life / microsomal CLint: human, pH 7.4; for CLint(MAO) / t1/2: human liver mitochondria 0.30 mg protein/mL, 37° C.
Method: Liver Mitochondria Incubations. Human liver mitochondria (Xenotech H0610.M) were used.

[9] = Metabolic stability in human liver microsomes (HLM); parameters: microsomal CLint / half-life: dose or concentration left out as unconfirmed; conditions: for half-life / microsomal CLint: both, human, pooled human liver microsomes, pH 7.4
[10] = test system: rat synaptosomes; experiment: Serotonin (5-HT) release from rat synaptosomes; type: biochemical, Male Sprague-Dawley rats; conditions: for EC50: rat synaptosomes preloaded with [3H]5-HT; for % Release @ Max Dose (10 μM): rat synaptosomes
Method: Disclosed compounds were assessed for their ability to release serotonin (5-HT) from […] (Table 9). Potency and efficacy for 5-HT release varied substantially depending on the specific compound. […] However, there was also substantial variability among 4-hydroxy compounds.
Synaptosome 5-HT Release Assay. Synaptosome release assays were conducted according to modifications of previously described procedures (Partilla et al. (2016). Interrogating the Activity of Ligands at Monoamine Transporters in Rat Brain Synaptosomes. In Neurotransmitter Transporters (pp. 41-52). Springer.). Briefly, synaptosomes were prepared from rat brains. Male Sprague-Dawley rats were rendered unconscious with CO2 and their brains were immediately removed. The cerebella were discarded and the whole brains (minus striatum) were placed in ice-cold 0.32 M sucrose (10 mL per brain) and gently homogenized by hand. The homogenate of each brain was centrifuged at 1,000×g at 4° C. for 10 mins and the resulting supernatant was diluted with ice-cold 0.32 M sucrose to a total volume of 10 mL to provide the synaptosome solution. Synaptosomes were then preloaded with 5 nM [^3H]5-HT in the presence of selective uptake inhibitors of DAT (50 nM GBR12935), NET (100 nM nomifensine), and VMAT2 (1 μM reserpine) in Krebs phosphate buffer (KPB). The incubations were allowed to reach equilibrium for 2 h at 25° C. For the release reactions, 425 μL of preloaded synaptosomes were added to test tubes containing 75 μL of test drugs diluted in KPB containing 1 mg/mL BSA. After 10 mins, the release reaction was stopped using a cell harvester by rapid vacuum filtration over GF/B filter paper presoaked in wash buffer (10 mM Tris-HCl, pH 7.4, 150 mM NaCl) and the filters were washed with additional wash buffer. Filters were dried for 1 h at 60° C. and retained radioactivity was quantified using a MicroBeta 2 liquid scintillation counter. The amount of retained radioactivity was inversely proportional to the extent of release.

[11] = molecular target: T4, 5-HT2C receptor (Homo sapiens, UniProt P28335); experiment: cell-based; type: cell-based; conditions: Ca2+ flux
T4 sequence (P28335 33-458): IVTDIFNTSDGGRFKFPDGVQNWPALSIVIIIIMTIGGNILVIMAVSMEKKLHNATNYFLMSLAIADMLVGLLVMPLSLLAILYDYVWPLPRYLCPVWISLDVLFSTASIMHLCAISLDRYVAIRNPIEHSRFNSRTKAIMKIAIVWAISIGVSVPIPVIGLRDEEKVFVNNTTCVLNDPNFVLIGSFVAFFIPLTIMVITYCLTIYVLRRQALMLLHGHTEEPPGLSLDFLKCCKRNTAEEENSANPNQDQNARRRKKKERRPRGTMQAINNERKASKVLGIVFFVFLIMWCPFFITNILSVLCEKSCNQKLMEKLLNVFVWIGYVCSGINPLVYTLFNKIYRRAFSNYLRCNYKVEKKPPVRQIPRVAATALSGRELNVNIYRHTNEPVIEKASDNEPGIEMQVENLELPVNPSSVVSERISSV

[12] = molecular target: T4, 5-HT2C receptor; experiment: 5-HT2C receptor radioligand binding ([3H]mesulergine); conditions: for Ki: HEK293 stable cell line, 2 nM [3H]mesulergine; for binding to the 5-HT2C receptor (in words): compared with 5-HT2A receptor binding
Method: The binding affinities of disclosed compounds at the mesulergine binding site of the 5-HT2C receptor were determined in radioligand binding experiments.
Method. Affinity of the test compounds for the 5-HT2C receptor was determined in radioligand binding experiments with [^3H]mesulergine by WuXi AppTec (Hong Kong) Limited, using methods adapted from the literature and under conditions described in Table 11.

[13] = Ca2+ flux, HEK293, read-out: 5-HT2A EC50
[14] = mouse brain homogenate, 1 μM, 37° C.
[15] = mouse, plasma, male C57BL/6 mice
[16] = rat brain homogenate, 1 μM, 37° C.
[17] = HLM 0.50 mg protein/mL, NADPH, 37° C., 60 minutes
[18] = HEK293 stable cell line, 1 nM [3H]ketanserin, read-out: 5-HT2A Ki (nM) ([3H]Ketanserin)

T2 sequence (P28223 whole entry): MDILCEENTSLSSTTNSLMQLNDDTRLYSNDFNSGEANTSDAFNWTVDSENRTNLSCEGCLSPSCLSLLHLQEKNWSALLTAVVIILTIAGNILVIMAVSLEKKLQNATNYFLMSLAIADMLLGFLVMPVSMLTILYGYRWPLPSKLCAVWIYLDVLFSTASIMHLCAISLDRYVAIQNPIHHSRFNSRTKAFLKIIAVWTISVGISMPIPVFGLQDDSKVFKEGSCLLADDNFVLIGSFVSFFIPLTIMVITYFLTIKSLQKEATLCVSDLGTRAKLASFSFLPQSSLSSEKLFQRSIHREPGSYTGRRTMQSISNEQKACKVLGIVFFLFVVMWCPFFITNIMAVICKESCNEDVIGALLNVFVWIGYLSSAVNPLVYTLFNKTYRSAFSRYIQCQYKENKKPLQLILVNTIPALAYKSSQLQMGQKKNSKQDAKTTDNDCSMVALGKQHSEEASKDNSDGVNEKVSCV
T1 sequence (P41595 whole entry, species assumed): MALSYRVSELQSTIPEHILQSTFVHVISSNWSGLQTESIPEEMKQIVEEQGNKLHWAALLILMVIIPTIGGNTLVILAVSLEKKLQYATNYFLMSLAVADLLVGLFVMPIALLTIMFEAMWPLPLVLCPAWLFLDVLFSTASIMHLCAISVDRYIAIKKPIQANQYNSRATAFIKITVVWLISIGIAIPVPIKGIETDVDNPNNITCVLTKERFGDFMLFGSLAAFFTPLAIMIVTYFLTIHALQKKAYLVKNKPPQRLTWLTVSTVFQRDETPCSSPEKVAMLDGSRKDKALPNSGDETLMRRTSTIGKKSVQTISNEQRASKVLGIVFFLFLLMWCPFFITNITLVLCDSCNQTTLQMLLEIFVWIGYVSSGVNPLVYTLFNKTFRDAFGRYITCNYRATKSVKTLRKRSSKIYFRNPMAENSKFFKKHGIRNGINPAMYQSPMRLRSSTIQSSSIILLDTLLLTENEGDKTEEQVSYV

Oc1cccc2[nH]cc(CCNC3CC3)c12 [Compound 4, 3-(2-(cyclopropylamino)ethyl)-1H-indol-4-ol]
agonism at 5-HT2B (in words) ([1]; Ca2+ flux): did not | 5-HT2B % Act @ Max Dose ([1]; Ca2+ flux): 4.08% | EC50 [2, 13]: 8.7 nM | stability in mouse brain homogenate (in words) [3]: intermediate stability | half-life at 1 µM [3, 14]: 0.883 h | % Compound Remaining (after 120 min) [3, 14]: 19.4% | peak plasma concentration compared with 5-F-DMT (in words) ([4]; mice): much higher peak concentrations than 5-F-DMT | AUC(0-t) [4, 15]: 665 ng·h/mL | Cmax [4, 15]: 1220 ng/mL | half-life [4, 15]: 0.62 h | Tmax ([4]; mouse, plasma, male C57BL/6 mice, read-out: Tmax): 0.25 h | Ki [5]: 339 nM | EC50 [6]: 6560 nM | 5-HT1A % Act @ Max Dose [6]: 58.72% | stability in rat brain homogenate (in words) [7]: intermediate stability | half-life at 1 µM [7, 16]: 1.05 h | % Compound Remaining (after 120 min) [7, 16]: 25.2% | stability in the presence of MAO (in words) [8]: intermediate stability | Remaining (t = 60 min) [8]: 72.7% | half-life [8]: 1.91 h | microsomal CLint [8]: 20.2 µL/min/mg | half-life [9]: 1.36 h | microsomal CLint [9]: 17 µL/min/mg | EC50 [10]: 1250 nM | % Release @ Max Dose (10 μM) [10]: 38.87%

CCN(C)CCc1c[nH]c2cccc(O)c12 [Compound 4-HO-MET, reference compound]
5-HT2B % Act @ Max Dose ([1]; Ca2+ flux): 1.1% | t1/2 [3, 14]: 0.763 h | % Compound Remaining (after 120 min) [3, 14]: 16.7% | AUC(0-t) [4, 15]: 1410 ng·h/mL | Cmax [4, 15]: 1160 ng/mL | Tmax ([4]; plasma, male C57BL/6 mice): 0.08 h | t1/2 ([4]; plasma, male C57BL/6 mice): 1.1 h | EC50 [11]: 37.8 nM | 5-HT2C % Act @ Max Dose [11]: 95.0% | t1/2 [7, 16]: 0.883 h | % Compound Remaining (after 120 min) [7, 16]: 20.9% | CLint(MAO) [8]: <15.9 µL/min/mg | t1/2 [8]: >2.42 h | stability in the presence of MAO (in words) [8]: stable | Remaining (t = 60 min) [8]: 112.3% | Clint [9, 17]: <9.6 µL/min/mg | t1/2 [9, 17]: >2.42 h | EC50 [10]: 496 nM | % Release @ Max Dose (10 μM) [10]: 56.9%

CC(C)n1cc(CCN(C)C)c2c(O)cc(F)cc21 [Compound 10, 3-(2-(dimethylamino)ethyl)-6-fluoro-1-isopropyl-1H-indol-4-ol]
EC50 [1]: > 10000 nM | 5-HT2B % Act @ Max Dose ([1]; Ca2+ flux): 1.99% | EC50 [2]: > 1000 nM | 5-HT2A % Act @ Max Dose ([2]; Ca2+ flux): 1.28% | half-life at 1 µM [3, 14]: > 4.82 h | % Compound Remaining (after 120 min) [3, 14]: 80.9% | Ki [5, 18]: 1190 nM | EC50 [6]: > 100000 nM | 5-HT1A % Act @ Max Dose [6]: 1.85% | EC50 [11]: 30.1 nM | agonism at 5-HT2C (in words) [11]: potent partial agonism | 5-HT2C % Act @ Max Dose [11]: 43.06% | Ki [12]: 10.5 nM | binding to the 5-HT2C receptor (in words) [12]: potent binding to the 5-HT2C receptor | half-life at 1 µM [7, 16]: 4.49 h | % Compound Remaining (after 120 min) [7, 16]: 71.4% | stability in the presence of MAO (in words) [8]: intermediate stability | Remaining (t = 60 min) [8]: 55.7% | half-life [8]: 1.31 h | microsomal CLint [8]: 29.4 µL/min/mg | half-life [9]: 1.78 h | microsomal CLint [9]: 12.9 µL/min/mg

CNCCc1cn(C(C)C)c2cc(F)cc(O)c12 [Compound 12, 6-fluoro-1-isopropyl-3-(2-(methylamino)ethyl)-1H-indol-4-ol]
EC50 [1]: > 10000 nM | 5-HT2B % Act @ Max Dose ([1]; Ca2+ flux): 1.74% | EC50 [2]: > 1000 nM | 5-HT2A % Act @ Max Dose ([2]; Ca2+ flux): 10.55% | half-life at 1 µM [3, 14]: 4.39 h | % Compound Remaining (after 120 min) [3, 14]: 72.3% | Ki [5, 18]: > 1230 nM | EC50 [6]: > 100000 nM | 5-HT1A % Act @ Max Dose [6]: 3.96% | EC50 [11]: 25.3 nM | agonism at 5-HT2C (in words) [11]: potent partial agonism | 5-HT2C % Act @ Max Dose [11]: 57.17% | Ki [12]: 30.8 nM | binding to the 5-HT2C receptor (in words) [12]: potent binding to the 5-HT2C receptor | half-life at 1 µM [7, 16]: 4.14 h | % Compound Remaining (after 120 min) [7, 16]: 70.4% | Remaining (t = 60 min) [8]: 104.0% | half-life [8]: > 2.42 h | microsomal CLint [8]: < 15.9 µL/min/mg | half-life [9]: > 2.42 h | microsomal CLint [9]: < 9.6 µL/min/mg

CCN(C)CCc1c[nH]c2ccccc12 [MET, N-methyl-N-ethyltryptamine, reference compound]
5-HT2B % Act @ Max Dose ([1]; Ca2+ flux): 11.9% | EC50 [2, 13]: 17.1 nM | Ki [5]: 128 nM | EC50 [6]: 57900 nM | 5-HT1A % Act @ Max Dose [6]: 71.4% | EC50 [11]: 28.3 nM | CLint(MAO) [8]: <15.9 µL/min/mg | t1/2 [8]: >2.42 h | stability in the presence of MAO (in words) [8]: more stable | Remaining (t = 60 min) [8]: 84.5% | EC50 [10]: 183 nM | % Release @ Max Dose (10 μM) [10]: 71.00%
